From BindingDB's records for doi:10.3109/14756360902932784 (Ewha Womans University, 2010)
Numbering of substitutions follows the chain as printed.

Experiments:
[1] = molecular target: T1, 5-hydroxytryptamine receptor 1A (Homo sapiens, UniProt P08908); assay: [3H]8-OH-DPAT Binding Assay; conditions: pH 7.4; 27 °C
T1 sequence (P08908 whole entry): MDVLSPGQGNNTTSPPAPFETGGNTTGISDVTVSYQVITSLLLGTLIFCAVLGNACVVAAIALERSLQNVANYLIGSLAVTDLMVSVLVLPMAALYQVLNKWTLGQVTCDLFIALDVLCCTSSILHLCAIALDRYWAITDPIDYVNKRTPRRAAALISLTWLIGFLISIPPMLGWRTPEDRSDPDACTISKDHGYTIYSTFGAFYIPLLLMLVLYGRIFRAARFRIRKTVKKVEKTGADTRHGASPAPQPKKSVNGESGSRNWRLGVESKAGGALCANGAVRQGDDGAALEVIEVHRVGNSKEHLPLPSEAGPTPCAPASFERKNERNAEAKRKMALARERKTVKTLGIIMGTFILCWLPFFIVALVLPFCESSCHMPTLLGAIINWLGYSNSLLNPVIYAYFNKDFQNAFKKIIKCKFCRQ
Experimental: For the binding assay, aliquots of receptor membranes, 0.25 nM [3H]8-OH-DPAT (8-hydroxy-2-(di-N-propylamino)tetralin, 154.3 Ci/mM; New England Nuclear, Boston, MA) and appropriate concentrations of test compounds were added to 0.25 mL of 50 mM Tris-HCl (pH 7.4) buffer containing 10 mM MgSO4, 0.5 mM ethylenediaminetetraacetic acid (EDTA), and 0.1% ascorbic acid. Incubations were carried out for 60 min at 27 °C, and these were terminated by rapid filtration using a MicroBeta FilterMate-96 harvester (PerkinElmer) through a Filtermat A glass fiber filter presoaked in 0.3% polyethylenimine (PEI). The filter was washed with ice-cold 50 mM Tris-HCl buffer solution (pH 7.4), and was then covered with MeltiLex, sealed in a sample bag, and dried in an oven.

[2] = molecular target: 5-hydroxytryptamine receptor 2A (Homo sapiens, UniProt P28223); assay: [3H]Ketanserin Binding Assay; conditions: pH 7.4
5-hydroxytryptamine receptor 2A, sequence (P28223 whole entry): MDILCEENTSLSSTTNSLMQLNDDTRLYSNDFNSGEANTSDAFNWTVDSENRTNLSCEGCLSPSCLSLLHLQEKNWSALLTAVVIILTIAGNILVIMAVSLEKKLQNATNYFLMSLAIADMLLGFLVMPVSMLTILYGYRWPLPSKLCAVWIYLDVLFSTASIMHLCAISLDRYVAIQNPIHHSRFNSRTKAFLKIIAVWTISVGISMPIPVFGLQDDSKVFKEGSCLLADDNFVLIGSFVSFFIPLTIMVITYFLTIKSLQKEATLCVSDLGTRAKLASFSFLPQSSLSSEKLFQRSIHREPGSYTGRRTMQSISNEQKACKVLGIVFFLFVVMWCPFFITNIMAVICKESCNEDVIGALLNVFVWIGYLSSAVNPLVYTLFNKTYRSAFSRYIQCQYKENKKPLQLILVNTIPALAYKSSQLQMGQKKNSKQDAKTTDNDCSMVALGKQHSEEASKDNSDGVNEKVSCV
Experimental: For serotonin 5-HT2A binding, an aliquot of frozen membrane from a CHO-K1 cell line expressing the human recombinant 5-HT2A receptor (PerkinElmer) and [3H]ketanserin (1 nM; PerkinElmer) were used in the presence of mianserin (20 μM) as nonspecific. The reaction mixture was incubated for 60 min at 27°C using 50 mM Tris-HCl (pH 7.4) buffer containin 4 mM CaCl2 and 0.1% ascorbic acid, and harvested through a Filtermat A glass fiber filter presoaked in 0.5% PEI.

[3] = molecular target: T2, 5-hydroxytryptamine receptor 2C (Homo sapiens, UniProt P28335); assay: [3H]Mesulergine Binding Assay; conditions: pH 7.4
T2 sequence (P28335 whole entry): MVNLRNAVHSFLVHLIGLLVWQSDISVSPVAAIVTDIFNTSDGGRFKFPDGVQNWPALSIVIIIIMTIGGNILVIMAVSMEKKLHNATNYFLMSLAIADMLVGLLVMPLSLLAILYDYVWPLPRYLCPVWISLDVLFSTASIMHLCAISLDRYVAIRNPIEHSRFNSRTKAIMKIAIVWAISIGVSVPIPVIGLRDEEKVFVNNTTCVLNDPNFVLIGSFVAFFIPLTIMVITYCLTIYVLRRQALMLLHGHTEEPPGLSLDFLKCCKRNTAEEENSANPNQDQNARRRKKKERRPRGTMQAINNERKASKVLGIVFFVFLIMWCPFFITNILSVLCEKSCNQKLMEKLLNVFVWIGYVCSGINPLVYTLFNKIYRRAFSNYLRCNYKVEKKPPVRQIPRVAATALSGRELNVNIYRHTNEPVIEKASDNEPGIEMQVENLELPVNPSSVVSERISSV
Experimental: (§1) Frozen membranes from a stable CHO-K1 cell line expressing the human recombinant 5-HT2C receptor (PerkinElmer) were used. For the binding assay, [3H]mesulergine (1 nM; Amersham Biosciences, Buckinghamshire, UK), receptor membrane, and test compounds were added into 50 mM Tris-HCl (pH 7.4) buffer containing 0.1% ascorbic acid and 4 mM CaCl2. Nonspecific binding was determined using 100 μM mianserin. The incubations were performed for 60 min at 27°C, and these were terminated by rapid filtration through a Filtermat A glass fiber filter presoaked in 0.5% PEI.

[4] = molecular target: 5-hydroxytryptamine receptor 6 (Homo sapiens, UniProt P50406); assay: [3H] LSD Binding Assay; conditions: pH 7.4; 27 °C
5-hydroxytryptamine receptor 6, sequence (P50406 whole entry): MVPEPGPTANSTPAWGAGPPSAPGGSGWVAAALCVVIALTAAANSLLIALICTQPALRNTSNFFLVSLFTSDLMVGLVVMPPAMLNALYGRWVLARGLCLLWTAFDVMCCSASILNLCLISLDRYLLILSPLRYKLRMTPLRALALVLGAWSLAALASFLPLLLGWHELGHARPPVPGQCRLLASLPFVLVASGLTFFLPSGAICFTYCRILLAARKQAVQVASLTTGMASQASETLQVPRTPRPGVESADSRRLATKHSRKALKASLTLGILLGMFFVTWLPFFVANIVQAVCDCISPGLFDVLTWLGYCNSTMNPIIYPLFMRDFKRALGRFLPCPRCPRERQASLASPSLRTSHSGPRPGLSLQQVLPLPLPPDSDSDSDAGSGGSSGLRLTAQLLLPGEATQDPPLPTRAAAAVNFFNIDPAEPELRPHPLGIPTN
Experimental: (§2) For receptor binding assays, human 5-HT6 and 5-HT7 serotonin receptors expressed in CHO-K1 cells (PerkinElmer) were used. For 5-HT6 receptor binding, frozen membrane, 1 nM [3H]LSD (lysergic acid diethylamide; PerkinElmer), and appropriate concentrations of test compounds were added to 0.25 mL of 50 mM Tris-HCl (pH 7.4) buffer containing 0.1% ascorbic acid and 4 mM CaCl2. Nonspecific binding was determined using 10 μM methiothepin. The incubations were performed for 60 min at 27 °C, and these were terminated by rapid filtration through a Filtermat A glassfiber filter presoaked in 0.5% PEI. For the 5-HT7 receptor binding assay, cell membrane, 3 nM [3H]LSD, and appropriate concentrations of test compounds were added to 0.25 mL of 50 mM Tris-HCl (pH 7.4) buffer containing 10 mM MgSO4 and 0.5 mM EDTA. The mixture was incubated for 120 min at 27 °C, and the reaction was terminated by rapid filtration through a Filtermat A glass fiber filter presoaked in 0.3% PEI. Nonspecific binding was determined using 10 μM methiothepin.

[5] = molecular target: 5-hydroxytryptamine receptor 7 (Homo sapiens, UniProt P34969); assay: [3H] LSD Binding Assay; conditions: pH 7.4; 27 °C
5-hydroxytryptamine receptor 7, sequence (P34969 whole entry): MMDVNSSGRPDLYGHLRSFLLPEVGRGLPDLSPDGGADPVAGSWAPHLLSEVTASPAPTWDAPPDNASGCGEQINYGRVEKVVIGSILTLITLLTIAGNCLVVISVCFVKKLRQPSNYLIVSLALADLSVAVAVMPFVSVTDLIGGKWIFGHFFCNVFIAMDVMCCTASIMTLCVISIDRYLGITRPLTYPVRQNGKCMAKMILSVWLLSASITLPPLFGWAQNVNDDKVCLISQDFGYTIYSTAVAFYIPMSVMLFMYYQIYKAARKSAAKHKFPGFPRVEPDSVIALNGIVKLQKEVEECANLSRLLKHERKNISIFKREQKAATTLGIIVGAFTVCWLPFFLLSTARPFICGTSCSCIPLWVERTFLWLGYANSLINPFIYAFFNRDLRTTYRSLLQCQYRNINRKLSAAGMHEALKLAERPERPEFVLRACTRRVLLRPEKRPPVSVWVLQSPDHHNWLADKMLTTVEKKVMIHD
Experimental: as §2

[6] = molecular target: T3, 5-hydroxytryptamine receptor 2C (Homo sapiens, UniProt P28335); assay: [3H]Mesulergine Binding Assay; conditions: pH 7.4; remark: listed apart in the source
T3 sequence (P28335 whole entry): T2 sequence (P28335 whole entry) with S23C
Experimental: as §1

| SMILES | IC50 [1] | IC50 [2] | IC50 [3] | IC50 [4] | IC50 [5] | IC50 [6] |
| --- | --- | --- | --- | --- | --- | --- |
| COc1cc(/C=C/C(=O)O)cc(OC)c1OC [3,4,5-Trimethoxycinnamic acid (TMCA)] | 7.6 µM | > 10 µM | 2.5 µM | > 10 µM | > 10 µM |  |
| CCCCNC(=O)/C=C/c1cc(OC)c(OC)c(OC)c1 [(E)-N-Butyl-3-(3,4,5-trimethoxyphenyl) acrylamide (1c)] | 4.9 µM | > 10 µM |  | > 10 µM | > 10 µM | > 10 µM |
| C=CCNC(=O)/C=C/c1cc(OC)c(OC)c(OC)c1 [(E)-N-Allyl-3-(3,4,5-trimethoxyphenyl) acrylamide (1b)] | 5.9 µM | > 10 µM |  | > 10 µM | > 10 µM | > 10 µM |
| CCCCCCNC(=O)/C=C/c1cc(OC)c(OC)c(OC)c1 [(E)-N-Hexyl-3-(3,4,5-trimethoxyphenyl) acrylamide (1d)] | 3.8 µM | > 10 µM |  | > 10 µM | > 10 µM | > 10 µM |
| CNC(=O)/C=C/c1cc(OC)c(OC)c(OC)c1 [(E)-N-Methyl-3-(3,4,5-trimethoxyphenyl) acrylamide (1a)] | 5.6 µM | > 10 µM |  | > 10 µM | > 10 µM | > 10 µM |
| CCCCCCCCCCNC(=O)/C=C/c1cc(OC)c(OC)c(OC)c1 [(E)-N-Decyl-3-(3,4,5-trimethoxyphenyl) acrylamide (1f)] | 2.1 µM | 6.8 µM | 4.5 µM | 5.6 µM | 6.7 µM |  |
| CCCCCCCCNC(=O)/C=C/c1cc(OC)c(OC)c(OC)c1 [(E)-N-Octyl-3-(3,4,5-trimethoxyphenyl) acrylamide (1e)] | 1.2 µM | > 10 µM | 8.8 µM | > 10 µM | > 10 µM |  |
